The target in one experiment is T1, Progesterone receptor (Homo sapiens, UniProt P06401).
T1 sequence (P06401 whole entry): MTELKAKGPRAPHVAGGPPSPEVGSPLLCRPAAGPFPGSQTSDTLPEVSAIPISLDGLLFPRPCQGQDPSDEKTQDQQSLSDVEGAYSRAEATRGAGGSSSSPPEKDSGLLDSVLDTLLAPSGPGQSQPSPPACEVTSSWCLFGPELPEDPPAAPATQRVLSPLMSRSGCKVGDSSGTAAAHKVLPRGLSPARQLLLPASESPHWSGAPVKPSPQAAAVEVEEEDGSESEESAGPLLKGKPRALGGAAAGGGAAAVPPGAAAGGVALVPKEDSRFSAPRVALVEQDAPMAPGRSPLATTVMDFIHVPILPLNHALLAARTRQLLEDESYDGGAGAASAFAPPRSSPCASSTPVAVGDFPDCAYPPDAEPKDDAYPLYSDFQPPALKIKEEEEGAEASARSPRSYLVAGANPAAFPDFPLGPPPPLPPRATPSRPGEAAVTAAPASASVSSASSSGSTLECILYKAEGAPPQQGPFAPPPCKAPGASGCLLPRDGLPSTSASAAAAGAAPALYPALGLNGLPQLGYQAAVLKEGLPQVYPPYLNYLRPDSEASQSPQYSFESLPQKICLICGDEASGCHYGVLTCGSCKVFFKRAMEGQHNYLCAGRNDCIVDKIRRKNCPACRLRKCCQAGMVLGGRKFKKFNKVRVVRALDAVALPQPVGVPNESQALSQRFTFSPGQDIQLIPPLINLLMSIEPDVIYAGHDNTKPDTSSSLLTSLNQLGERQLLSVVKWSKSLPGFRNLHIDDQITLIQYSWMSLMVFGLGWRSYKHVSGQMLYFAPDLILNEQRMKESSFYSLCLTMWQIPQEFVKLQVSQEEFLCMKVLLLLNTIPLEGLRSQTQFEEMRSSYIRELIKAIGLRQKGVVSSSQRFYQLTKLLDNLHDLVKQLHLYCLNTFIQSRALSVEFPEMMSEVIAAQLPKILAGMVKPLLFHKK
Briefly: Binding affinity to progesterone receptor.

The target of experiment [1] is T2, Glucocorticoid receptor (Homo sapiens, UniProt P04150).
T2 sequence (P04150 whole entry): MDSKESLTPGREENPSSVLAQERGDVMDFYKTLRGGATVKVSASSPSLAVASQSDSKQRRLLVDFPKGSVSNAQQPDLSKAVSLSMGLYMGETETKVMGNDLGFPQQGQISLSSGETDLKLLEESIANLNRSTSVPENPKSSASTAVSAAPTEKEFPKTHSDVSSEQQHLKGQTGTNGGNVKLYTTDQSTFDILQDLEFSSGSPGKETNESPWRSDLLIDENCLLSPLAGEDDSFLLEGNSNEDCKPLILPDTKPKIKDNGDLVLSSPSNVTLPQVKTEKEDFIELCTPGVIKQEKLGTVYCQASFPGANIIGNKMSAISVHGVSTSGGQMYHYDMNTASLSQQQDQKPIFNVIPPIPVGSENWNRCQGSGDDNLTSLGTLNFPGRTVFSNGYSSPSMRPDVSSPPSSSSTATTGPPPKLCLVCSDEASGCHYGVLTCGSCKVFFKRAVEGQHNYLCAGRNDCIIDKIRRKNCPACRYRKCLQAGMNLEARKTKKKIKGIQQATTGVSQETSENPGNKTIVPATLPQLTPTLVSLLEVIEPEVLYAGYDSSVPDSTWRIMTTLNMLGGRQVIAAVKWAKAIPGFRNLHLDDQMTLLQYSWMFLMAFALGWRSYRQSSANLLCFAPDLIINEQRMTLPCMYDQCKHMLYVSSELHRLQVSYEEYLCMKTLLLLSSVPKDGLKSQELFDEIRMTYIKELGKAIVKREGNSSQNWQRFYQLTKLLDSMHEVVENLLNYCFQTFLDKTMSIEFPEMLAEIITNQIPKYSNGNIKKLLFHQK
In kind it is cell-based, NHDF.
Description: Transrepression activity at GR expressed in NHDF cells assessed as IL-1beta-mediated IL-6 transcription by ELISA

Experiment [2] has as its target T2, Glucocorticoid receptor.
Description: Displacement of radiolabeled Dexamethasone from GR
In experiment [3] the target is T2, Glucocorticoid receptor. In kind it is cell-based, HepG2.
Description: Transrepression activity at GR expressed in IL-1beta- and TNFalpha-stimulated HepG2 cells assessed as inhibition of NFKB- or AP-1 mediated E-selectin transcription by luciferase reporter gene assay
The target in experiment [4] is T2, Glucocorticoid receptor. The format is functional, cell-based, CV-1.
Description: Agonist activity at GR expressed in african green monkey CV1 cells transfected with luciferase gene linked to MMTV promoter assessed as induction of luciferase transactivation activity
Experiment [5] deals with T2, Glucocorticoid receptor. In kind it is functional, cell-based, H4IIEC3.
Description: Agonist activity at GR expressed in rat H4IIEC3 cells assessed as induction of PEPCK transactivation by luciferase reporter gene assay
The target of experiment [6] is T3, Mineralocorticoid receptor (Homo sapiens, UniProt P08235).
T3 sequence (P08235 whole entry): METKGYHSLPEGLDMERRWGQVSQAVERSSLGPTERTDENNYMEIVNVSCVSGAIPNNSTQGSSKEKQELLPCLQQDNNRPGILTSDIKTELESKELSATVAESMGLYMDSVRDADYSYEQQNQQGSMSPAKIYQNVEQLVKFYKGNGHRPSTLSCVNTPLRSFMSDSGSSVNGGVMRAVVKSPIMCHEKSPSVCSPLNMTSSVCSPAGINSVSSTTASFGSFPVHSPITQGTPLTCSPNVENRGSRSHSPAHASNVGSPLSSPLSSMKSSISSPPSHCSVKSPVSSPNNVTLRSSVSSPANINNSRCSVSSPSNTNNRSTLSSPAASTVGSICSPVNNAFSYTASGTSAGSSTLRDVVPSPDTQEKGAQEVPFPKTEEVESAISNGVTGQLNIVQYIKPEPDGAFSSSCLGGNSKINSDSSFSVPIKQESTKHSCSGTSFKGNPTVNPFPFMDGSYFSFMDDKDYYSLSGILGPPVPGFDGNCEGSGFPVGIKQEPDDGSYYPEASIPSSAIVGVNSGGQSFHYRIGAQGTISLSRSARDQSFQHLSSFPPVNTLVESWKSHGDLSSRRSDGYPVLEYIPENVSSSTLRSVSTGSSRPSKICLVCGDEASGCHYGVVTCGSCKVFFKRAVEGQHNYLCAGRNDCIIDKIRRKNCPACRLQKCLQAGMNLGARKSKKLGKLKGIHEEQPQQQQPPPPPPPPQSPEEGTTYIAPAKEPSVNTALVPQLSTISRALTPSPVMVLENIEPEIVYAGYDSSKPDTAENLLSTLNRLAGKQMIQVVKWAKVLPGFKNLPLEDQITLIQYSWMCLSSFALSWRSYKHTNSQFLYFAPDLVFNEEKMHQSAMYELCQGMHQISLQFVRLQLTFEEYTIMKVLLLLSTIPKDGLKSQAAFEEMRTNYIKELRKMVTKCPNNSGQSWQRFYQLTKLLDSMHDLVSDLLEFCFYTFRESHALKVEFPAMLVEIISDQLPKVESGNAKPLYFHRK
Briefly: Binding affinity to mineralocorticoid receptor.

For two compounds, Ki, IC50 and EC50 results are on record in ChEMBL document CHEMBL1681769, “Tetrahydroquinolin-3-yl carbamate glucocorticoid receptor agonists with reduced PEPCK activation” (Bioorg Med Chem Lett, 2011).

pEC50, pIC50, pKi: −log10 of the molar value.

Usually pKi stands for the negative decadic logarithm of the Ki, by convention in mol/L. A higher pKi goes with a low Ki. As a reminder, the pIC50 is −log10 of the IC50, conventionally taken in molar units. Higher therefore signals a low IC50. The term pEC50 denotes the EC50 on a negative log10 scale, so that one unit is a factor of ten. Low readings indicate a large EC50, high ones a small EC50.

Take `CC(C)NC(=O)O[C@@H]1[C@@H](C)c2c(cc(F)c(-c3cccc4c(Cl)c[nH]c34)c2F)NC1(C)C` (racemic): the pKi on Progesterone receptor was 6.67; on Glucocorticoid receptor [2], 8.11; in experiment [6], 6.42. Also, the pIC50 was 7.77 on Glucocorticoid receptor [1] and 7.35 against Glucocorticoid receptor [3]. Also, the pEC50 is 7.05 on Glucocorticoid receptor [4] and 6.44 on Glucocorticoid receptor [5].

In the case of `CC(=O)c1ccc(NC(=O)O[C@@H]2[C@@H](C)c3c(cc(F)c(-c4cccc5cc[nH]c45)c3F)NC2(C)C)cc1` (racemic), the negative logarithm of the Ki (pKi) at Progesterone receptor was 6.64; on Glucocorticoid receptor [2] it was 8.54; in experiment [6], 5.95. Moreover, the negative-log IC50 (pIC50) at Glucocorticoid receptor [1] was 7.51; on Glucocorticoid receptor [3], 7.64. In addition, the pEC50 at Glucocorticoid receptor [4] is 7.80; at Glucocorticoid receptor [5], 6.74.
